From ChEMBL document CHEMBL3132769, “Fragment growing to retain or alter the selectivity of anchored kinase hinge-binding fragments” (Medchemcomm, 2014)

How the values were obtained:
[1] = target: Mitogen-activated protein kinase 14 (Homo sapiens) (UniProt Q16539); experiment: Inhibition of human truncated p38 alpha expressed in Escherichia coli cell assessed as substrate phosphorylation using fluorescence-labelled peptides as substrate at 0.06 uM after 90 mins by microfluidic peptide phosphorylation assay
Chain of Mitogen-activated protein kinase 14 (Homo sapiens) (Q16539 whole entry, the tested form may be a part): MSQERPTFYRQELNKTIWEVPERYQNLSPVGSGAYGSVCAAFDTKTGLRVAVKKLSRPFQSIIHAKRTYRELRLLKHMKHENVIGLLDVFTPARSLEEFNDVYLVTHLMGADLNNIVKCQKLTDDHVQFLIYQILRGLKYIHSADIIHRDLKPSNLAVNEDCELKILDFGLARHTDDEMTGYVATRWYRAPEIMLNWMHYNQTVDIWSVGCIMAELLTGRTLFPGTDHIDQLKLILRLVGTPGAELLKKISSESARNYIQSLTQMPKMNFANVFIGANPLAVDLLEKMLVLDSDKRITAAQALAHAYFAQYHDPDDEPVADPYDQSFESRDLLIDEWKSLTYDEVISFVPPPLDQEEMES

[2] = target: Tyrosine-protein kinase HCK (Homo sapiens) (UniProt P08631); experiment: Inhibition of human HCK catalytic domain expressed in baculovirus assessed as substrate phosphorylation using fluorescence-labelled peptides as substrate at […] after 90 mins by microfluidic peptide phosphorylation assay
Chain of Tyrosine-protein kinase HCK (Homo sapiens) (P08631 2-526 limits assumed): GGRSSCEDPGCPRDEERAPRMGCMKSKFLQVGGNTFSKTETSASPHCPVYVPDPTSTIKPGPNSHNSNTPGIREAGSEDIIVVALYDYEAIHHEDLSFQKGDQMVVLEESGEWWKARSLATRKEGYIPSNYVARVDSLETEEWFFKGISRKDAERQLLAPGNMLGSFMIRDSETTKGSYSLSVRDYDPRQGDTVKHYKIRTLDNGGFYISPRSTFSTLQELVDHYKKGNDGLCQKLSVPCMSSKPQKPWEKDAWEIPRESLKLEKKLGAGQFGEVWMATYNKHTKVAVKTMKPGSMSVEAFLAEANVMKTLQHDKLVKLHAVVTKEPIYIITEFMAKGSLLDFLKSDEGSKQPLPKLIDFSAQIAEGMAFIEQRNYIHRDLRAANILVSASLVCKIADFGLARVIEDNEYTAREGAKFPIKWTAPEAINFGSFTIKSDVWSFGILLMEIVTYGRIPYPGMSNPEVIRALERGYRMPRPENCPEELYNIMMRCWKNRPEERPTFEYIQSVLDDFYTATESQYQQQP

[3] = target: Ribosomal protein S6 kinase alpha-5 (Homo sapiens) (UniProt O75582); experiment: Inhibition of human full length MSK1 expressed in baculovirus assessed as substrate phosphorylation using fluorescence-labelled peptides as substrate at 9 uM after 90 mins by microfluidic peptide phosphorylation assay
Chain of Ribosomal protein S6 kinase alpha-5 (Homo sapiens) (O75582 whole entry, looked up, the tested form may be a part): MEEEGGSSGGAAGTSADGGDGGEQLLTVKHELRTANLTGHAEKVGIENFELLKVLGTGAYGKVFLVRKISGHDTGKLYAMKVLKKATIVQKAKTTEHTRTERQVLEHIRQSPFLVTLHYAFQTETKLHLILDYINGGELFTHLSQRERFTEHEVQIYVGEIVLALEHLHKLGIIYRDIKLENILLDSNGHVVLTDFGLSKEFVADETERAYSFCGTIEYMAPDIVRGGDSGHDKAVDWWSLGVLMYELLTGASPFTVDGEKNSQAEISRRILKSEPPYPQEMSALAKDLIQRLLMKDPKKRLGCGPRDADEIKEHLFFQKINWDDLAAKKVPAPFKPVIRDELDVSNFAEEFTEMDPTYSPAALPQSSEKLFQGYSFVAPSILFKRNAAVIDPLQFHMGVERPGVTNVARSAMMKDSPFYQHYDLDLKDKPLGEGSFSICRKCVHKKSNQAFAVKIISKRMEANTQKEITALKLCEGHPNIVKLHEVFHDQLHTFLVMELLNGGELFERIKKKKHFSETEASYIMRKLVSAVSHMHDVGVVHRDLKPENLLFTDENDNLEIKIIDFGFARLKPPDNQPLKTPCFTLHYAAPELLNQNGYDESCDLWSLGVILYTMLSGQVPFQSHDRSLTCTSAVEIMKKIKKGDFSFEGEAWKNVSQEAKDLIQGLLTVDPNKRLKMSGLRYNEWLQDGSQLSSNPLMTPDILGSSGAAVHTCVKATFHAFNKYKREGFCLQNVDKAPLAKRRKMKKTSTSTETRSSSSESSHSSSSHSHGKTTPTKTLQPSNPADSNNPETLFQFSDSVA

[4] = target: Protein kinase C eta type (Homo sapiens) (UniProt P24723); experiment: Inhibition of human truncated PKC eta expressed in baculovirus assessed as substrate phosphorylation using fluorescence-labelled peptides as substrate at 70 uM after 90 mins by microfluidic peptide phosphorylation assay
Chain of Protein kinase C eta type (Homo sapiens) (P24723 whole entry, the tested form may be a part): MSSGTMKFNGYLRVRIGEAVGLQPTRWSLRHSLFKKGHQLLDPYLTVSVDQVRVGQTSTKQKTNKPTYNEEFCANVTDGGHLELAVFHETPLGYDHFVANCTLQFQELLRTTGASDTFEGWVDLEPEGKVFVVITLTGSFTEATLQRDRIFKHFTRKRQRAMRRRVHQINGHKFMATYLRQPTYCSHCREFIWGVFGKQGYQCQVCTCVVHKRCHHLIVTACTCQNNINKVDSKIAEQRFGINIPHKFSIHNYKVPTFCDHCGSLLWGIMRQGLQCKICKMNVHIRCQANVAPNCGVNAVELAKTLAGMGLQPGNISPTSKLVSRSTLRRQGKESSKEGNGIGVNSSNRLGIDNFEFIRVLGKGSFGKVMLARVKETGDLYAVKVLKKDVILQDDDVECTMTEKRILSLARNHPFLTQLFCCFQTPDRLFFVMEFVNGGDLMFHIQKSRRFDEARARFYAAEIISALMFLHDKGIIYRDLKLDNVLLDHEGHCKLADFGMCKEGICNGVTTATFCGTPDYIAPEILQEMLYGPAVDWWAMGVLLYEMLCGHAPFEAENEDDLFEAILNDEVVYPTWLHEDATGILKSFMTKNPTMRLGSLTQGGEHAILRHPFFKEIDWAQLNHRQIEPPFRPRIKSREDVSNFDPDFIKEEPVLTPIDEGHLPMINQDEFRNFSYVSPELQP

[5] = target: T1, Serine/threonine-protein kinase BRSK1 (Homo sapiens) (UniProt Q8TDC3); experiment: Inhibition of human full length BRSK1 expressed in baculovirus assessed as substrate phosphorylation using fluorescence-labelled peptides as substrate at 8 uM after 90 mins by microfluidic peptide phosphorylation assay
T1 sequence (whole entry): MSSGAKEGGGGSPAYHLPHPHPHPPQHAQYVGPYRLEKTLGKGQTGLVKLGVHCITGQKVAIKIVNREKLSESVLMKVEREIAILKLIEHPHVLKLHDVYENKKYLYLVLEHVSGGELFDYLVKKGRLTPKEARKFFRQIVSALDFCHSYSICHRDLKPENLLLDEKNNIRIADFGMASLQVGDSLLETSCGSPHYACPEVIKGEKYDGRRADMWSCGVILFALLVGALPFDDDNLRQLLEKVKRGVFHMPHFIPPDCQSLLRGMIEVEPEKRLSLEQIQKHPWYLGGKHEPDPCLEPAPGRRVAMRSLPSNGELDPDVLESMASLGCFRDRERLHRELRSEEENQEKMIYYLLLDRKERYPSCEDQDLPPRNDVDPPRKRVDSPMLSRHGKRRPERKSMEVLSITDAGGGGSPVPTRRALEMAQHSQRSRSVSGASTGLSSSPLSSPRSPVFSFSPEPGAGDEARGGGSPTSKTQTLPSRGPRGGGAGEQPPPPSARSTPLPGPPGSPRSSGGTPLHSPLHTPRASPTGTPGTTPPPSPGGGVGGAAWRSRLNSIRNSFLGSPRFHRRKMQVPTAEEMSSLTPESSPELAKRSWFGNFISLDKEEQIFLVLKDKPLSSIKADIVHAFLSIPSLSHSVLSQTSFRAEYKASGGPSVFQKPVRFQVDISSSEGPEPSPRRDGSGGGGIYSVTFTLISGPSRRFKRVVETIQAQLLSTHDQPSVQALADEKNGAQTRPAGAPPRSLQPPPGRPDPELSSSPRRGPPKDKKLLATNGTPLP

[6] = target: Protein kinase C alpha type (Homo sapiens) (UniProt P17252); experiment: Inhibition of human truncated PKC alpha expressed in baculovirus assessed as substrate phosphorylation using fluorescence-labelled peptides as substrate at 8 uM after 90 mins by microfluidic peptide phosphorylation assay
[7] = target: T2, Serine/threonine-protein kinase D3 (Homo sapiens) (UniProt O94806); experiment: Inhibition of human full length PKD3 expressed in baculovirus assessed as substrate phosphorylation using fluorescence-labelled peptides as substrate at 1000 uM after 90 mins by microfluidic peptide phosphorylation assay
T2 sequence (whole entry): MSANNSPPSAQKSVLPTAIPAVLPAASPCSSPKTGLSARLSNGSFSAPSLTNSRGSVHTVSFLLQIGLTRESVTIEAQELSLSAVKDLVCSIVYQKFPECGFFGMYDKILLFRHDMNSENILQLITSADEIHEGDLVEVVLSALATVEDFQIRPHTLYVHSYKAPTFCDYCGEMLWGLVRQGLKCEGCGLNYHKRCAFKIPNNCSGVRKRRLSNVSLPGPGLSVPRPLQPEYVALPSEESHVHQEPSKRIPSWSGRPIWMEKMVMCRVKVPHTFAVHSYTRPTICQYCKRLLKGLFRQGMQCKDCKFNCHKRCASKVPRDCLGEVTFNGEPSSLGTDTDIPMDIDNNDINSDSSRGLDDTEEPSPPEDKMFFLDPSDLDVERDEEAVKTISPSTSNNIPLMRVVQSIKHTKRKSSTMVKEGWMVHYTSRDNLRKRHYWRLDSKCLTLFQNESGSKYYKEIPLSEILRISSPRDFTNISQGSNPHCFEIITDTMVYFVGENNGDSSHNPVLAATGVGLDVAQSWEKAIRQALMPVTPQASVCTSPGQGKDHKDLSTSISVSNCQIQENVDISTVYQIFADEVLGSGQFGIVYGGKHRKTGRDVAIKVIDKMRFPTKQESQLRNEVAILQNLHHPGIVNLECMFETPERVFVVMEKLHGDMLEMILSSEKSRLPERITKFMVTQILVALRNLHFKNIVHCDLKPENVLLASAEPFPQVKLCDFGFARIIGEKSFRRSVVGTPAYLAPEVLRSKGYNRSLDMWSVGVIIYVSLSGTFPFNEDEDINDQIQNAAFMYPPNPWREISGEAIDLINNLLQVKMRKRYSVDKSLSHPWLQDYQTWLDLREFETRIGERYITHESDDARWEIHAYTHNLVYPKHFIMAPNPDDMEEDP

[8] = target: Mitogen-activated protein kinase kinase kinase kinase 4 (Homo sapiens) (UniProt O95819); experiment: Inhibition of human HGK catalytic domain expressed in baculovirus assessed as substrate phosphorylation using fluorescence-labelled peptides as substrate at 2 uM after 90 mins by microfluidic peptide phosphorylation assay
[9] = target: Fibroblast growth factor receptor 2 (Homo sapiens) (UniProt P21802); experiment: Inhibition of human FGFR2 catalytic domain expressed in baculovirus assessed as substrate phosphorylation using fluorescence-labelled peptides as substrate at 2 uM after 90 mins by microfluidic peptide phosphorylation assay
Chain of Fibroblast growth factor receptor 2 (Homo sapiens) (P21802 22-821 limits assumed): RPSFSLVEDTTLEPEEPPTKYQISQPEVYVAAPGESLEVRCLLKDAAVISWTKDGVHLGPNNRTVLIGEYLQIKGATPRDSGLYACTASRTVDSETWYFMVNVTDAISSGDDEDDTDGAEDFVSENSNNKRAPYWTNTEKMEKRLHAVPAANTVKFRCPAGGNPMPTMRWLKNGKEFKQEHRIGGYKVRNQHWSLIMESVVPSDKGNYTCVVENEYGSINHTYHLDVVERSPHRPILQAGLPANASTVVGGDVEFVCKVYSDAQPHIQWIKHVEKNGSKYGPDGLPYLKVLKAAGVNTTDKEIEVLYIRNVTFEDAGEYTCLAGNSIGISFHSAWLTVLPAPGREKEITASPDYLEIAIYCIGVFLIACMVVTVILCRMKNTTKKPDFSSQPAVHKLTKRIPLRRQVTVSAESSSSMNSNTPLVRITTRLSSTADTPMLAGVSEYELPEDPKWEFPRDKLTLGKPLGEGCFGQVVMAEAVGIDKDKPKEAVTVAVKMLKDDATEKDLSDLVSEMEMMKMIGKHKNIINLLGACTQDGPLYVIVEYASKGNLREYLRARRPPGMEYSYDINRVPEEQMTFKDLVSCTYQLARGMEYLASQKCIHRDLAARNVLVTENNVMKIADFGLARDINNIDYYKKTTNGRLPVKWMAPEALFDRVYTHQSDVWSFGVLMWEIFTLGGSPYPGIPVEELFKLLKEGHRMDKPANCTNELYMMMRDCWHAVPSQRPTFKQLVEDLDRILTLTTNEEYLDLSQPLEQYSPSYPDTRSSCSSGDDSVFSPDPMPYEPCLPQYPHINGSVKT

NC1(Cc2ccc(Cl)cc2)CCN(c2ncnc3[nH]ccc23)CC1
inhibition [1]: 0%

COC(=O)c1cnc(Nc2cnc(C#N)cn2)cc1NCC1CCNCC1
inhibition [2]: 11%

NCC1CN(c2ncnc3[nH]c4cnccc4c23)CCO1 (centres undefined)
inhibition [3]: 60%

CNCc1ccc(-c2ncnc3[nH]cnc23)cc1
inhibition [4]: 78.5%

NCC1CCN(c2ncnc3[nH]ccc23)CC1
inhibition [5]: 56.5%
inhibition [6]: 56.5%

c1cnc2[nH]ccc2c1
inhibition [7]: 62.5%

NC1CCN(c2ncnc3[nH]ccc23)CC1
inhibition [8]: 0%
inhibition [9]: 1.5%
